Where two headings read alike, the source gives them in different places.
Legend:
Type in all cases: cell-based
hGIPR = biological target: T1, hGIPR (Homo sapiens, UniProt P48546); experiment: Functional cAMP formation (HTRF) in HEK-293 clonal cells expressing hGIPR, 0.1% bovine casein, without or with 1.0% human serum albumin; details: for EC50: geometric mean
T1 construct: expressed in transfected cells
T1 sequence (P48546 22-466): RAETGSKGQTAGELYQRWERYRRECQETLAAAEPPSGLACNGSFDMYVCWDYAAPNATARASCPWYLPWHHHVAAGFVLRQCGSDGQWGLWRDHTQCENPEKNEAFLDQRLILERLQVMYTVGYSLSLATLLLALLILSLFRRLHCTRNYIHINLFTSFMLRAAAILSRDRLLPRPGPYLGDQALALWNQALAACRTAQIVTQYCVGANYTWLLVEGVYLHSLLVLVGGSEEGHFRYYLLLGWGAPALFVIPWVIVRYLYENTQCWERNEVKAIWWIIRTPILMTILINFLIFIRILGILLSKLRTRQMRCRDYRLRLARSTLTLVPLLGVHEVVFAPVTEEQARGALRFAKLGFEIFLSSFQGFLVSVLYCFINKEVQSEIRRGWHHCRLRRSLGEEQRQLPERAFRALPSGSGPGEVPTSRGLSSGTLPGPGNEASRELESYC
Procedure, shortened: (§1)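 Cells were stimulated with peptide for 30 min at 37° C, then intracellular cAMP was measured by competitive HTRF (665/620 nm ratio) and converted to nM using a cAMP standard curve. Relative EC50 and Emax came from four-parameter logistic fits of percent maximal response against peptide concentration.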

hGCGR = biological target: T2, hGCGR (Homo sapiens, UniProt P47871); experiment: Functional cAMP formation (HTRF) in HEK-293 clonal cells expressing hGCGR, 0.1% bovine casein, without or with 1.0% human serum albumin; details: geometric mean
T2 construct: expressed in transfected cells
Procedure, shortened: as §1

hGLP-1R = hGLP-1R (Homo sapiens, UniProt P43220); experiment: Functional cAMP formation (HTRF) in HEK-293 clonal cells expressing hGLP-1R, 0.1% bovine casein, without or with 1.0% human serum albumin; set-up: expressed in transfected cells; details: for EC50: geometric mean
Procedure, shortened: as §1

[1] = 0.1% bovine casein and 1.0% human serum albumin, 37° C., read-out: hGIPR EC50, nM (SEM, n)
[2] = HEK293, 0.1% bovine casein and 1.0% human serum albumin, 37° C., percent of maximal response to GIP(1-42)NH2, read-out: hGIPR Emax, % ± SEM
[3] = cAMP, incubated at 37° C., 0.1% bovine casein (no human serum albumin), read-out: hGIPR EC50, nM (SEM, n)
[4] = 0.1% bovine casein and 1.0% human serum albumin, 37° C., read-out: hGCGR EC50, nM (SEM, n)
[5] = cAMP, incubated at 37° C., 0.1% bovine casein (no human serum albumin), read-out: hGCGR EC50, nM (SEM, n)
[6] = 0.1% bovine casein and 1.0% human serum albumin, 37° C., read-out: hGLP-1R EC50, nM (SEM, n)
[7] = cAMP, incubated at 37° C., 0.1% bovine casein (no human serum albumin), read-out: hGLP-1R EC50, nM (SEM, n)
[8] = HEK293, read-out: hGIPR Emax, % ± SEM, 0.1% bovine casein and 1.0% human serum albumin, 37° C., percent of maximal response to GIP(1-42)NH2
[9] = hGIPR EC50, nM (SEM, n), 0.1% bovine casein and 1.0% human serum albumin, 37° C.
[10] = hGIPR EC50, nM (SEM, n), cAMP, incubated at 37° C., 0.1% bovine casein (no human serum albumin)
[11] = hGCGR EC50, nM (SEM, n), 0.1% bovine casein and 1.0% human serum albumin, 37° C.
[12] = hGCGR EC50, nM (SEM, n), cAMP, incubated at 37° C., 0.1% bovine casein (no human serum albumin)
[13] = hGLP-1R EC50, nM (SEM, n), 0.1% bovine casein and 1.0% human serum albumin, 37° C.
[14] = hGLP-1R EC50, nM (SEM, n), cAMP, incubated at 37° C., 0.1% bovine casein (no human serum albumin)

hGLP-1R, sequence (P43220 24-463): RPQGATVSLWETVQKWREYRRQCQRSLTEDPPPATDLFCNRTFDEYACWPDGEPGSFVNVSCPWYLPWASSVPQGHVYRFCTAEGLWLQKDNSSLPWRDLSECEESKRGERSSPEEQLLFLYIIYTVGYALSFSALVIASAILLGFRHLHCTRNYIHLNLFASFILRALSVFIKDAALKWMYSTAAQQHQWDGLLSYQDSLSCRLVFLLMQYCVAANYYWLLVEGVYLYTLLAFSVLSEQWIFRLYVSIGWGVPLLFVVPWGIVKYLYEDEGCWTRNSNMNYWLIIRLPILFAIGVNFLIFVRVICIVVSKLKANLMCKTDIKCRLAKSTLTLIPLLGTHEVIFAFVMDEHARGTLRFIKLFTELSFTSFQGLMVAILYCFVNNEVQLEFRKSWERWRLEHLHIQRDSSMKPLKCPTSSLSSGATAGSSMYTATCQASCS
T2 sequence (P47871 26-477): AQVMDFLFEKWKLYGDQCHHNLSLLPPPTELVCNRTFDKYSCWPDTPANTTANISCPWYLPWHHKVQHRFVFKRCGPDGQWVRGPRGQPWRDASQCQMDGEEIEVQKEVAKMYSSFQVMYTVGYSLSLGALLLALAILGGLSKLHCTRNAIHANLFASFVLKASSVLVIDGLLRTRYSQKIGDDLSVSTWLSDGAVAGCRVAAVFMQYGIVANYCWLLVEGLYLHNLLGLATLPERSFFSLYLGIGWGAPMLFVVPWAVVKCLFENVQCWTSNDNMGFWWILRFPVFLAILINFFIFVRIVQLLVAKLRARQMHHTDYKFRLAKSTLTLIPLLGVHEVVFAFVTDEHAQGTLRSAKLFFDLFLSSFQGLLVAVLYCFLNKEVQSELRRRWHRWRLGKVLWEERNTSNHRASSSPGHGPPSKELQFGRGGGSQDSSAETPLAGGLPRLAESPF

| SMILES | EC50 (hGIPR; [1]) [nM] | Emax (hGIPR; [2]) [%] | EC50 (hGIPR; [3]) [nM] | EC50 (hGCGR; [4]) [nM] | EC50 (hGCGR; [5]) [nM] | EC50 (hGLP-1R; [6]) [nM] | EC50 (hGLP-1R; [7]) [nM] | Emax (hGIPR; HEK293, percent of maximal response to GIP(1-42)NH2, 37° C., 0.1% bovine casein, arithmetic mean, read-out: hGIPR Emax, % ± SEM) [%] | Emax (hGLP-1R; HEK293, percent of maximal response to GLP-1(7-36)NH2, 37° C., 0.1% bovine casein, arithmetic mean, read-out: hGLP-1R Emax, % ± SEM) [%] | Emax (hGIPR; [8]) [%] | EC50 (hGIPR; [9]) [nM] | EC50 (hGIPR; [10]) [nM] | EC50 (hGCGR; [11]) [nM] | EC50 (hGCGR; [12]) [nM] | EC50 (hGLP-1R; [13]) [nM] | EC50 (hGLP-1R; [14]) [nM] |
| --- | --- | --- | --- | --- | --- | --- | --- | --- | --- | --- | --- | --- | --- | --- | --- | --- |
| CC[C@H](C)[C@H](NC(=O)[C@H](CC(C)C)NC(=O)[C@](C)(Cc1ccc(O)cc1)NC(=O)[C@@H](CCC(=O)O)NC(=O)[C@@H](NC(=O)[C@H](Cc1ccccc1)NC(=O)[C@H](CCCCNC(=O)COCCOCCNC(=O)CC[C@H](NC(=O)CCCCCCCCCCCCC(=O)O)C(=O)O)NC(=O)C(C)(C)NC(=O)[C@H](CCC(N)=O)NC(=O)[C@H](C)NC(=O)[C@H](CCCCNC(=O)COCCOCCNC(=O)CC[C@H](NC(=O)CCCCCCCCCCCCC(=O)O)C(=O)O)NC(=O)[C@H](CCCN)NC(=O)[C@H](CC(=O)O)NC(=O)[C@H](CC(C)C)NC(=O)[C@](C)(CC(C)C)NC(=O)[C@@H](NC(=O)[C@H](CO)NC(=O)[C@H](Cc1ccncc1)NC(=O)[C@H](CC(=O)O)NC(=O)[C@H](CO)NC(=O)[C@@H](NC(=O)[C@](C)(Cc1ccccc1F)NC(=O)[C@@H](NC(=O)CNC(=O)[C@H](CCC(=O)O)NC(=O)C(C)(C)NC(=O)[C@@H](N)Cc1ccc(O)cc1)[C@@H](C)O)[C@@H](C)O)[C@@H](C)CC)[C@@H](C)CC)C(=O)N[C@@H](CCC(=O)O)C(=O)NCC(=O)NCC(=O)N1CCC[C@H]1C(=O)N[C@@H](CO)C(=O)N[C@@H](CO)C(=O)NCC(=O)N[C@@H](C)C(=O)N1CCC[C@H]1C(=O)N1CCC[C@H]1C(=O)N1CCC[C@H]1C(=O)N[C@@H](CO)C(N)=O [Example 76] | 1.4 | 89.9 ± 2.11 | 0.0205 | > 9950 | > 9950 | 28.9 | 0.527 |  |  |  |  |  |  |  |  |  |
| CC[C@H](C)[C@H](NC(=O)[C@H](CC(C)C)NC(=O)[C@](C)(Cc1ccc(O)cc1)NC(=O)[C@@H](CCC(=O)O)NC(=O)[C@@H](NC(=O)[C@H](Cc1ccccc1)NC(=O)[C@H](CCCCNC(=O)COCCOCCNC(=O)COCCOCCNC(=O)COCCOCCNC(=O)CC[C@H](NC(=O)CCCCCCCCCCCCC(=O)O)C(=O)O)NC(=O)C(C)(C)NC(=O)[C@H](CCC(N)=O)NC(=O)[C@H](C)NC(=O)[C@H](CCCCNC(=O)COCCOCCNC(=O)COCCOCCNC(=O)COCCOCCNC(=O)CC[C@H](NC(=O)CCCCCCCCCCCCC(=O)O)C(=O)O)NC(=O)[C@H](CCCN)NC(=O)[C@H](CC(=O)O)NC(=O)[C@H](CC(C)C)NC(=O)[C@](C)(CC(C)C)NC(=O)[C@@H](NC(=O)[C@H](CO)NC(=O)[C@H](Cc1ccncc1)NC(=O)[C@H](CC(=O)O)NC(=O)[C@H](CO)NC(=O)[C@@H](NC(=O)[C@](C)(Cc1ccccc1F)NC(=O)[C@@H](NC(=O)CNC(=O)[C@H](CCC(=O)O)NC(=O)C(C)(C)NC(=O)[C@@H](N)Cc1ccc(O)cc1)[C@@H](C)O)[C@@H](C)O)[C@@H](C)CC)[C@@H](C)CC)C(=O)N[C@@H](CCC(=O)O)C(=O)NCC(=O)NCC(=O)N1CCC[C@H]1C(=O)N[C@@H](CO)C(=O)N[C@@H](CO)C(=O)NCC(=O)N[C@@H](C)C(=O)N1CCC[C@H]1C(=O)N1CCC[C@H]1C(=O)N1CCC[C@H]1C(=O)N[C@@H](CO)C(N)=O [Example 77] |  |  | 0.0288 |  | > 9950 |  | 3.03 | 94.8 ± 2.69 | 87 ± 1.71 |  |  |  |  |  |  |  |
| CC[C@H](C)[C@H](NC(=O)[C@H](CC(C)C)NC(=O)[C@](C)(Cc1ccc(O)cc1)NC(=O)[C@@H](CCC(=O)O)NC(=O)[C@@H](NC(=O)[C@H](Cc1ccccc1)NC(=O)[C@H](CCCCNC(=O)COCCOCCNC(=O)COCCOCCNC(=O)CCCCCCCCCCCCC(=O)O)NC(=O)C(C)(C)NC(=O)[C@H](CCC(N)=O)NC(=O)[C@H](C)NC(=O)[C@H](CCCCNC(=O)COCCOCCNC(=O)COCCOCCNC(=O)CCCCCCCCCCCCC(=O)O)NC(=O)[C@H](CCCN)NC(=O)[C@H](CC(=O)O)NC(=O)[C@H](CC(C)C)NC(=O)[C@](C)(CC(C)C)NC(=O)[C@@H](NC(=O)[C@H](CO)NC(=O)[C@H](Cc1ccncc1)NC(=O)[C@H](CC(=O)O)NC(=O)[C@H](CO)NC(=O)[C@@H](NC(=O)[C@](C)(Cc1ccccc1F)NC(=O)[C@@H](NC(=O)CNC(=O)[C@H](CCC(=O)O)NC(=O)C(C)(C)NC(=O)[C@@H](N)Cc1ccc(O)cc1)[C@@H](C)O)[C@@H](C)O)[C@@H](C)CC)[C@@H](C)CC)C(=O)N[C@@H](CCC(=O)O)C(=O)NCC(=O)NCC(=O)N1CCC[C@H]1C(=O)N[C@@H](CO)C(=O)N[C@@H](CO)C(=O)NCC(=O)N[C@@H](C)C(=O)N1CCC[C@H]1C(=O)N1CCC[C@H]1C(=O)N1CCC[C@H]1C(=O)N[C@@H](CO)C(N)=O [Example 78] | 0.242 | 89.7 ± 2.65 | 0.0145 | > 9950 | > 9950 | 4.29 | 0.286 |  |  |  |  |  |  |  |  |  |
| CC[C@H](C)[C@H](NC(=O)[C@H](CC(C)C)NC(=O)[C@](C)(Cc1ccc(O)cc1)NC(=O)[C@H](CCCCNC(=O)COCCOCCNC(=O)CC[C@H](NC(=O)CCCCCCCCCCCCC(=O)O)C(=O)O)NC(=O)[C@@H](NC(=O)[C@H](Cc1ccccc1)NC(=O)[C@H](CCC(=O)O)NC(=O)C(C)(C)NC(=O)[C@H](CCC(N)=O)NC(=O)[C@H](C)NC(=O)[C@H](CCCCNC(=O)COCCOCCNC(=O)CC[C@H](NC(=O)CCCCCCCCCCCCC(=O)O)C(=O)O)NC(=O)[C@H](CCCN)NC(=O)[C@H](CC(=O)O)NC(=O)[C@H](CC(C)C)NC(=O)[C@](C)(CC(C)C)NC(=O)[C@@H](NC(=O)[C@H](CO)NC(=O)[C@H](Cc1ccncc1)NC(=O)[C@H](CC(=O)O)NC(=O)[C@H](CO)NC(=O)[C@@H](NC(=O)[C@](C)(Cc1ccccc1F)NC(=O)[C@@H](NC(=O)CNC(=O)[C@H](CCC(=O)O)NC(=O)C(C)(C)NC(=O)[C@@H](N)Cc1ccc(O)cc1)[C@@H](C)O)[C@@H](C)O)[C@@H](C)CC)[C@@H](C)CC)C(=O)N[C@@H](CCC(=O)O)C(=O)NCC(=O)NCC(=O)N1CCC[C@H]1C(=O)N[C@@H](CO)C(=O)N[C@@H](CO)C(=O)NCC(=O)N[C@@H](C)C(=O)N1CCC[C@H]1C(=O)N1CCC[C@H]1C(=O)N1CCC[C@H]1C(=O)N[C@@H](CO)C(N)=O [Example 79] |  |  |  |  |  |  |  |  |  | 95 | 2.31 | 0.013 | > 9950 | > 9950 | 15.1 | 0.223 |
| CC[C@H](C)[C@H](NC(=O)[C@H](CC(C)C)NC(=O)[C@](C)(Cc1ccc(O)cc1)NC(=O)[C@H](CCCCNC(=O)COCCOCCNC(=O)COCCOCCNC(=O)CCCCCCCCCCCCC(=O)O)NC(=O)[C@@H](NC(=O)[C@H](Cc1ccccc1)NC(=O)[C@H](CCC(=O)O)NC(=O)C(C)(C)NC(=O)[C@H](CCC(N)=O)NC(=O)[C@H](C)NC(=O)[C@H](CCCCNC(=O)COCCOCCNC(=O)COCCOCCNC(=O)CCCCCCCCCCCCC(=O)O)NC(=O)[C@H](CCCN)NC(=O)[C@H](CC(=O)O)NC(=O)[C@H](CC(C)C)NC(=O)[C@](C)(CC(C)C)NC(=O)[C@@H](NC(=O)[C@H](CO)NC(=O)[C@H](Cc1ccncc1)NC(=O)[C@H](CC(=O)O)NC(=O)[C@H](CO)NC(=O)[C@@H](NC(=O)[C@](C)(Cc1ccccc1F)NC(=O)[C@@H](NC(=O)CNC(=O)[C@H](CCC(=O)O)NC(=O)C(C)(C)NC(=O)[C@@H](N)Cc1ccc(O)cc1)[C@@H](C)O)[C@@H](C)O)[C@@H](C)CC)[C@@H](C)CC)C(=O)N[C@@H](CCC(=O)O)C(=O)NCC(=O)NCC(=O)N1CCC[C@H]1C(=O)N[C@@H](CO)C(=O)N[C@@H](CO)C(=O)NCC(=O)N[C@@H](C)C(=O)N1CCC[C@H]1C(=O)N1CCC[C@H]1C(=O)N1CCC[C@H]1C(=O)N[C@@H](CO)C(N)=O [Example 81] |  |  |  |  |  |  |  |  |  | 97.4 | 0.531 | 0.0114 | > 9950 | > 9950 | 3.47 | 0.176 |

— patent US20230265151A1, “GIP/GLP1 CO-AGONIST COMPOUNDS” (priority 2020, published 2023)
